From patent publication US6979686B1, “Substituted pyrazoles as p38 kinase inhibitors” (Pharmacia Corporation, priority 2001, dated 2005)
Read-outs that look alike come from different tables or passages of the source.

Target: T1, human p38 kinase alpha (Homo sapiens, UniProt Q16539)
T1 construct: GST (N, cleaved yes); made in house; host or cells: E. coli DH10B
Test: p38 kinase in vitro assay, phosphorylation of biotinylated PHAS-I with 32P-ATP
Type: biochemical
Details: for IC50: read-out: P38 alpha kinase IC50; for inhibition at 1 µM: read-out: P38 alpha kinase % inhib @ conc.

[1] = in vitro P38-alpha kinase inhibition

T1 sequence (Q16539 whole entry): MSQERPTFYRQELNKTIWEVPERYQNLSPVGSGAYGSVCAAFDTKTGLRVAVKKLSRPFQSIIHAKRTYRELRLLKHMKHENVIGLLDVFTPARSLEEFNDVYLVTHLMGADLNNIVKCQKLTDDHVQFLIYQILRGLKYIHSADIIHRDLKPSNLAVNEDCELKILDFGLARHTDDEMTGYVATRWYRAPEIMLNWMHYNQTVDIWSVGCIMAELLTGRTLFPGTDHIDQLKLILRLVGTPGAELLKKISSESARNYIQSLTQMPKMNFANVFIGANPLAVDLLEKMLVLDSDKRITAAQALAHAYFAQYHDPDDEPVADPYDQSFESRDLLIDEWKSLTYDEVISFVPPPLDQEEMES

## O=C(NC(Cc1ccccc1)c1[nH]nc(-c2ccc(F)cc2)c1-c1ccncc1)c1ccccc1 (stereo not shown) [Example B-0851]
[1]
  IC50: 910 nM

## O=C(NCCc1[nH]nc(-c2ccc(F)cc2)c1-c1ccncc1)Nc1ccc(F)cc1 [Example B-1034]
@ 1.0 uM
  P38 alpha kinase % inhib @ conc. (uM): 66.0% @

## C=CCNC(=O)NCCc1[nH]nc(-c2ccc(F)cc2)c1-c1ccncc1 [Example B-1040]
@ 1.0 uM
  P38 alpha kinase % inhib @ conc. (uM): 72.0% @

## CCOC(=O)c1cc(-c2ccc(NC(=O)Cn3nc(-c4ccc(F)cc4)c(-c4ccncc4)c3C)cc2)oc1C [Example B-2450]
@ 10.0 uM
  P38 alpha kinase IC50, uM or % inhib @ conc. (uM): % inhib: 87.0% @

## O=S(=O)(NCCc1[nH]nc(-c2ccc(F)cc2)c1-c1ccncc1)c1cccc2ccccc12 [Example B-1069]
[1]
  IC50: 220 nM

## O=S(=O)(c1ccccc1Cl)N1CCC(c2[nH]nc(-c3ccc(F)cc3)c2-c2ccncc2)CC1 [Example B-1457]
In vitro P38-alpha kinase
  IC50: 430 nM

## CCS(=O)(=O)NC(C)c1[nH]nc(-c2ccc(F)cc2)c1-c1ccncc1 (stereo not shown) [Example B-0572]
[1]
  IC50: 270 nM

## O=C(Cc1cccs1)NC(Cc1ccccc1)c1[nH]nc(-c2ccc(F)cc2)c1-c1ccncc1 (stereo not shown) [Example B-0745]
[1]
  IC50: 6000 nM

## CN(C)C(=O)NC(Cc1ccccc1)c1[nH]nc(-c2ccc(F)cc2)c1-c1ccncc1 (stereo not shown) [Example B-0774]
[1]
  IC50: 1500 nM

## O=C(NCCCc1[nH]nc(-c2ccc(F)cc2)c1-c1ccncc1)c1cccs1 [Example B-1357]
In vitro P38-alpha kinase
  IC50: 180 nM

## Cc1c(-c2ccncc2)c(-c2ccc(F)cc2)nn1CC(=O)Nc1cccc(SC(F)(F)F)c1 [Example B-2459]
@ 10.0 uM
  P38 alpha kinase IC50, uM or % inhib @ conc. (uM): % inhib: 82.0% @

## CC(NC(=O)c1cccc(Cl)c1Cl)c1[nH]nc(-c2ccc(F)cc2)c1-c1ccncc1 (stereo not shown) [Example B-0681]
[1]
  IC50: 1960 nM

## CC(C)c1cc(C(C)C)c(C(=O)NCc2[nH]nc(-c3ccc(F)cc3)c2-c2ccncc2)c(C(C)C)c1 [Example B-0030]
@ 1.0 uM
  inhibition at 1 µM: 92%

## Cc1ccccc1C(=O)N1CCC(c2[nH]nc(-c3ccc(F)cc3)c2-c2ccncc2)CC1 [Example B-1400]
In vitro P38-alpha kinase
  IC50: 24 nM

## Cc1ccc(C)c(S(=O)(=O)NC(C)c2[nH]nc(-c3ccc(F)cc3)c2-c2ccncc2)c1 (stereo not shown) [Example B-0645]
[1]
  IC50: 580 nM

## O=S(=O)(c1ccc(OC(F)(F)F)cc1)N1CCC(c2[nH]nc(-c3ccc(F)cc3)c2-c2ccncc2)CC1 [Example B-1477]
In vitro P38-alpha kinase
  IC50: 2500 nM

## COCC(=O)NC(C)c1[nH]nc(-c2ccc(F)cc2)c1-c1ccncc1 (stereo not shown) [Example B-0543]
[1]
  IC50: 1560 nM

## CNC(=O)CCC(NC(=O)c1ccccc1I)c1[nH]nc(-c2ccc(F)cc2)c1-c1ccncc1 (stereo not shown) [Example B-0861]
[1]
  IC50: 1320 nM

## O=C(NCc1[nH]nc(-c2ccc(F)cc2)c1-c1ccncc1)c1ccc(-c2ccccc2)cc1 [Example B-0008]
@ 1.0 uM
  inhibition at 1 µM: 42%

## CCCOC(=O)NCCCc1[nH]nc(-c2ccc(F)cc2)c1-c1ccncc1 [Example B-1230]
@ 1.0 uM
  P38 alpha kinase % inhib @ conc.: 90.0% @

## O=C(NCCc1[nH]nc(-c2ccc(F)cc2)c1-c1ccncc1)c1ccccc1I [Example B-0982]
@ 1.0 uM
  P38 alpha kinase % inhib @ conc. (uM): 65.0% @

## Cc1ccc(S(=O)(=O)NC(Cc2ccccc2)C(=O)NC(Cc2ccccc2)c2[nH]nc(-c3ccc(F)cc3)c2-c2ccncc2)cc1 (stereo not shown) [Example B-0859]
[1]
  IC50: 39500 nM

## O=S(=O)(NCCCc1[nH]nc(-c2ccc(F)cc2)c1-c1ccncc1)c1ccc(-c2ccon2)s1 [Example B-1290]
In vitro P38-alpha kinase
  IC50: 260 nM

## CCCNC(=O)NC(Cc1ccccc1)c1[nH]nc(-c2ccc(F)cc2)c1-c1ccncc1 (stereo not shown) [Example B-0780]
[1]
  IC50: 1100 nM

## O=S(=O)(C=Cc1ccccc1)NC(Cc1ccccc1)c1[nH]nc(-c2ccc(F)cc2)c1-c1ccncc1 (stereo not shown) [Example B-0710]
[1]
  IC50: 1990 nM

## O=C(NCCc1[nH]nc(-c2ccc(F)cc2)c1-c1ccncc1)c1cccc(Cl)c1 [Example B-1153]
[1]
  IC50: 2220 nM

## Cc1cccc(C)c1NC(=O)N1CCC(c2[nH]nc(-c3ccc(F)cc3)c2-c2ccncc2)CC1 [Example B-1380]
In vitro P38-alpha kinase
  IC50: < 100 nM

## COC(=O)[C@H](CC(C)C)NC(=O)Cn1nc(-c2ccc(F)cc2)c(-c2ccncc2)c1C [Example B-2364]
@ 10.0 uM
  P38 alpha kinase % inhib @ conc.: 47.0% @

## Cc1c(Cl)cccc1S(=O)(=O)NCCCc1[nH]nc(-c2ccc(F)cc2)c1-c1ccncc1 [Example B-1252]
In vitro P38-alpha kinase
  IC50: 170 nM

## CCc1ccc(S(=O)(=O)NCCCc2[nH]nc(-c3ccc(F)cc3)c2-c2ccncc2)cc1 [Example B-1265]
In vitro P38-alpha kinase
  IC50: 430 nM

## CC(=O)OCC(=O)NCc1[nH]nc(-c2ccc(F)cc2)c1-c1ccncc1 [Example B-0004]
@ 1.0 uM
  inhibition at 1 µM: 80%

## COc1ccc(C)cc1S(=O)(=O)NC(C)c1[nH]nc(-c2ccc(F)cc2)c1-c1ccncc1 (stereo not shown) [Example B-0647]
[1]
  IC50: 1610 nM

## CC(C)OC(=O)NCCc1[nH]nc(-c2ccc(F)cc2)c1-c1ccncc1 [Example B-1057]
@ 1.0 uM
  P38 alpha kinase % inhib @ conc. (uM): 85.0% @

## CC(Oc1ccccc1)C(=O)NCCCc1[nH]nc(-c2ccc(F)cc2)c1-c1ccncc1 (stereo not shown) [Example B-1186]
@ 1.0 uM
  P38 alpha kinase % inhib @ conc. (uM): 83.0% @
